Values after ≈ are worked out from the molar mass of the structure shown.
What was measured:
VEGFR2 = biological target: T1, VEGFR2 (Homo sapiens, UniProt P35968); test: Kinase inhibitory activity, Mobility Shift Assay (VEGFR2); format: biochemical
T1 construct: purchased Carna 08-191
Procedure: (§1) Assay for Inhibitory Activity of Compounds Against VEGFR and EGFR Kinases
(§2) This assay directly monitors the inhibitory activity of compounds on kinase phosphorylation by measuring non-phosphorylated and phosphorylated substrates in the kinase reaction using Mobility Shift Assays/IMAP™ analysis. Table 2. Reagents and Instruments
(§3) Kinase and DTT were added to 1X kinase buffer to form a 2.5X kinase solution; 10 µL of the 2.5X kinase solution was transferred to a 384-well reaction plate, and 1X kinase buffer was added to the negative control wells. The plate was incubated at room temperature for 10 minutes; FAM-labeled peptide, MgCl2, ATP, and other reagents were added to 1X kinase buffer to form a 2.5X substrate solution; 10 µL of the above 2.5X substrate solution was transferred to the 384-well reaction plate; the plate was incubated at 28°C for varying times, and then 25 µL of stop solution was added to the 384-well reaction plate to terminate the reaction. Conversion rate data were read on a CaliperEZ Reader II. […] IC50 values were fitted using XLFit excel add-in version 5.4.0.8. Y = Bottom + (Top−Bottom)/(1 + […]) [formula]
(§4) X is the log value of compound concentration, Y is the inhibition rate (% inhibition).

[1] = Thermodynamic solubility test; format: physicochemical; conditions: buffer solution, aqueous buffer, thermodynamic from solid; thermodynamic solubility, room temperature, 8 hours shaking; buffers pH 2.0, 6.5, 7.4 used, pH of the tabulated value not given
Procedure: Solubility Test of Compounds
Table 9. Reagents and Instruments
After sonication for 10 minutes, they were fixed on a shaker and shaken at room temperature for 8 hours. After shaking, they were sonicated for 10 minutes and centrifuged at 13000 rpm for 15 minutes. 0.1 mL of supernatant was aspirated into a new tube, rinsed with 5 mL of buffer by shaking, and the liquid was discarded. 0.5 mL of supernatant was transferred again to a new tube, centrifuged at 13000 rpm for 15 minutes, and the supernatant was taken (diluted with water if necessary) for LC-MS injection analysis. Sample concentrations were quantified using a 3-5 point calibration curve.

melanin = test: Compound binding to melanin; format: in vitro ADME; conditions: cuttlefish (Sepia officinalis), melanin suspension (1 mg/mL), percentage of free drug (not bound to melanin), 2 µM compound, melanin 1 mg/mL in PBS pH 7.4, 37°C
Source text: Detection of Compound Binding to Melanin
Pigmented ocular tissues contain melanin within intracellular melanosomes. Drugs bind to melanin to varying degrees, from no binding to extensive binding. Therefore, melanin binding is an important characteristic affecting ocular drug delivery and biodistribution. The ability of compounds to bind to melanin must be considered in ocular drug development.
Melanin derived from cuttlefish (Sepia officinalis) melanin was purchased from Sigma Aldrich (St Louis, MO).
First, prepare a 1 mg/mL melanin suspension in PBS (pH 7.4). As a matrix washing step, suspended particles were centrifuged at 3000 rpm for 5 minutes. The resulting pellet was resuspended in fresh PBS buffer, heated to 37°C with continuous shaking, and incubated for 1 hour. Accurately pipette 2 microliters of test compound stock solution (0.1 mM) into 98 microliters of melanin suspension (1 mg/mL), resulting in a final incubation concentration of 2 µM. Similarly, accurately pipette 2 microliters of stock solution (0.1 mM) into 98 microliters of PBS buffer (containing 0.1% BSA) as a blank control sample. Samples were incubated at 37°C for 2 hours on a shaker (80-90 rpm). Then centrifuged at room temperature. 50 microliters of supernatant was aspirated and added to 50 microliters of precipitation agent (containing internal standard). All samples above were subjected to protein precipitation, centrifuged, the supernatant was taken, diluted with water (if necessary), and then injected for analysis. Simultaneously, high-binding compounds Sunitinib and chloroquine, and the low-binding compound celecoxib were measured as positive controls. An LC-MS/MS analytical method for determining compound concentration was established. The ratio of analyte/internal standard peak areas (Aanalyte/AIS) measured in the samples, calibrated by the dilution factor, was used as the surrogate concentration for data processing. The binding rate of the compound to melanin (Fb) is calculated by the formula: Fb = 100−(Ctest)/(Ccontrol) × 100% [formula]
Ctest is the drug concentration of the compound in the melanin incubation sample or the peak area ratio of the test compound to the internal standard. Ccontrol is the drug concentration of the compound in the blank control sample or the peak area ratio of the test compound to the internal standard. Percentage of free drug (Fu%) = 100 - Fb The binding rates of the compounds of the present invention to melanin are shown in the table below: Table 11. Binding Rate of Compounds to Melanin

EGFR = biological target: T2, EGFR (Homo sapiens, UniProt P00533); test: Kinase inhibitory activity, Mobility Shift Assay (EGFR); format: biochemical
T2 construct: purchased Carna 08-115
Procedure: as §1, §2, §3, §4

[2] = Ophthalmic formulations based on polyethylene glycol series vehicles: composition and state (Example 7); format: physicochemical
Source text: In the following ophthalmic formulation preparation examples, "solution" refers to a clear, transparent liquid without visible insoluble matter. "Near-clear solution" refers to a liquid that appears close to a solution upon visual observation but may contain a small amount of insoluble particles or have a slightly opaque color. "Suspension" refers to a liquid that is visibly turbid or opaque. "Gel" refers to a completely or partially gel-like solid.
Example 7: Ophthalmic Formulations Based on Polyethylene Glycol Series Vehicles
According to the formulation composition shown in the tables below, weigh the compound powder, add it to polyethylene glycol 400, and sonicate until dissolved or nearly dissolved (heat to 50°C if necessary). Add this to a Tris-HCl buffer solution containing hydroxypropyl-β-cyclodextrin, poloxamer 188, and gellan gum (or other viscosity modifier), vortex to mix, and prepare into an eye drop formulation.

[3] = Table 15: 10 mg/mL, Polyethylene glycol 400 10, Hydroxypropyl-β-cyclodextrin 10, Gellan Gum Gelrite 0.3, Poloxamer 188 1, Tris solution and Citric acid
[4] = Table 16: 2 mg/mL, Polyethylene Glycol 400 5, Poloxamer 188 1, Hydroxypropyl-β-cyclodextrin 6, Gellan Gum Gelrite 0.15, Tris-HCl Buffer (pH 6.8) 25mM
[5] = Table 13: 1mg/ml, Polyethylene glycol 400 5, Hydroxypropyl-β-cyclodextrin 10, Tris-HCl buffer (pH 8.3) 50mM, Carbomer 0.48, Poloxamer 188 1
[6] = Table 14: 5mg/ml, Polyethylene glycol 400 10, Hydroxypropyl-β-cyclodextrin 10, Gellan Gum Gelrite 0.3, Poloxamer 188 1, 0.5 M Tris solution 2, 0.1 M Citric acid 1

T1 sequence (P35968 20-1356): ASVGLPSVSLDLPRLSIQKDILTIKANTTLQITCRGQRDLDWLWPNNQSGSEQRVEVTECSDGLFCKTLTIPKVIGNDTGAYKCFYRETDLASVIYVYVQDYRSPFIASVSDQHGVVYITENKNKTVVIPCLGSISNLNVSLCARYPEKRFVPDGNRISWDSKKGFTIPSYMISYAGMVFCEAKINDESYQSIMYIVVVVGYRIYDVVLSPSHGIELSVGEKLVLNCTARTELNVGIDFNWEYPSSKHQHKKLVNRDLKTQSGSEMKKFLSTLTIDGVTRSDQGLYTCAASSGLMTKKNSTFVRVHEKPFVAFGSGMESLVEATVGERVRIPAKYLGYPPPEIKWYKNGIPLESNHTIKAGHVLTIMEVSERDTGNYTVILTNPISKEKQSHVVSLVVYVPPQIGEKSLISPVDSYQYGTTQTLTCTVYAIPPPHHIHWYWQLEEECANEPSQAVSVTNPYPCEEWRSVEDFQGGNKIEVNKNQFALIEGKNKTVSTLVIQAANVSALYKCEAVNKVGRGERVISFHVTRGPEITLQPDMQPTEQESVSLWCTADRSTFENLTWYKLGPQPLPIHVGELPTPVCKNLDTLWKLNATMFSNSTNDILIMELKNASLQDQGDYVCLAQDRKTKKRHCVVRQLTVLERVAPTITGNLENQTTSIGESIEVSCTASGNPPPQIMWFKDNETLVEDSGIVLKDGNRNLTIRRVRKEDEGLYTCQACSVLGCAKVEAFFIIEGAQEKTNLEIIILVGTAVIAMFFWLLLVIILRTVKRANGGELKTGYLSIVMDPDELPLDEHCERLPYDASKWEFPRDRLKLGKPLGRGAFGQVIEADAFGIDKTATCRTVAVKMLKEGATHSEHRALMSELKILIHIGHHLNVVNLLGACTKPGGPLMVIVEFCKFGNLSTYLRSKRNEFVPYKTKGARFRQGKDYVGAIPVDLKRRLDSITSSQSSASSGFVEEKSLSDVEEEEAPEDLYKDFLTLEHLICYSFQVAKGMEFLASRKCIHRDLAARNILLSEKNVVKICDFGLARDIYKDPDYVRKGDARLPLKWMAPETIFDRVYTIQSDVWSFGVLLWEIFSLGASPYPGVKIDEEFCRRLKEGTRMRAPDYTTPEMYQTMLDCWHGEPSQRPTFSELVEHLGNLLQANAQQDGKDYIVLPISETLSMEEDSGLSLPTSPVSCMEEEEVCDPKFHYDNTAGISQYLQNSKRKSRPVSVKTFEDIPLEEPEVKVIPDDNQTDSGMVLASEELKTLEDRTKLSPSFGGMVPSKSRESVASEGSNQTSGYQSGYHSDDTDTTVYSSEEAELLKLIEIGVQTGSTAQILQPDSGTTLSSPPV
T2 sequence (P00533 25-1210): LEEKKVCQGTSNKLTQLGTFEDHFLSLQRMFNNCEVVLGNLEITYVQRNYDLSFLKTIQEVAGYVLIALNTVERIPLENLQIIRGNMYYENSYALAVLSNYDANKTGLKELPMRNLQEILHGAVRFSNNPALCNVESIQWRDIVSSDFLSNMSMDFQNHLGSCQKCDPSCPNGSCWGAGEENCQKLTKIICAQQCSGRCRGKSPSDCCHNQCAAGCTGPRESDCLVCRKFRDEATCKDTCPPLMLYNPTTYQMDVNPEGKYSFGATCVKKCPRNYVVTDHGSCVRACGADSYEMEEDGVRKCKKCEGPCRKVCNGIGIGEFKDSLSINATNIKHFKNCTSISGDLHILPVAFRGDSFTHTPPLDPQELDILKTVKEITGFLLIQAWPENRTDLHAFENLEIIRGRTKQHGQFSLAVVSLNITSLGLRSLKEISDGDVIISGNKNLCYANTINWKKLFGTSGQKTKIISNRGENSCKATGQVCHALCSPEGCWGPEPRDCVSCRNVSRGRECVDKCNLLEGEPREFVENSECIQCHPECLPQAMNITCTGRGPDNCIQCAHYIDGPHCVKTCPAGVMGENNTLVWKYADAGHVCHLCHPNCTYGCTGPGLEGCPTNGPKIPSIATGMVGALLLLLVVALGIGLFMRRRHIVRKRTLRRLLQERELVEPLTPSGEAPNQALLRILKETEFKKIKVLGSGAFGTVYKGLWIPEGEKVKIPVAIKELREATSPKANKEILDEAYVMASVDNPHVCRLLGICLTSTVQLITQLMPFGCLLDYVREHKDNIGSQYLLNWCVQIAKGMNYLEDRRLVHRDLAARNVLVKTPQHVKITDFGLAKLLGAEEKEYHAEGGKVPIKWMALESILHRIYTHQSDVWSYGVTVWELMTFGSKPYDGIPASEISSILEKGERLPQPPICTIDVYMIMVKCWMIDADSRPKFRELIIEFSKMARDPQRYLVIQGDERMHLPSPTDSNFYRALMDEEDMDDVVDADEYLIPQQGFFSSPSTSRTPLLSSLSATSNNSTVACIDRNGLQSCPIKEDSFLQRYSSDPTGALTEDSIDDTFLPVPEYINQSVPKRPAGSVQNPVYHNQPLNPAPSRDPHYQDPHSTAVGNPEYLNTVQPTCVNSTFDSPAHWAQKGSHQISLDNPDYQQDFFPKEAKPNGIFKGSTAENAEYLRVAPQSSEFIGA

Compound	IC50 (VEGFR2)	solubility at 8 h [1]	fraction unbound at 2 h, 2 µM (melanin)	IC50 (EGFR)	also measured
CCN(CC)Cc1ccc(/C=C/c2n[nH]c3cc(Sc4c(F)cccc4C(=O)NC4CC4)ccc23)nc1 [Compound I-85]	1 to 10 nM	–	–	6000 to 60000 nM	–
CCNC(=O)c1ccc(Sc2ccc3c(/C=C/c4ccc(CN(CC)CC)cn4)n[nH]c3c2)cc1F [Compound I-87, 4-({3-[(E)-2-{5-[(diethylamino)methyl]pyridin-2-yl}ethenyl]-1H-indazol-6-yl}sulfanyl)-N-ethyl-2-fluorobenzamide]	> 100 nM	–	–	> 60000 nM	–
CCNC(=O)c1ccccc1Sc1ccc2c(/C=C/c3ccc(CN(CC)CC)cn3)n[nH]c2c1 [Compound I-86, 2-({3-[(E)-2-{5-[(diethylamino)methyl]pyridin-2-yl}ethenyl]-1H-indazol-6-yl}thio)-N-ethylbenzamide]	–	1130 µg/mL (≈ 2320 µM)	0.01 to 0.05	–	State Description: pH [2, 3]: ~5.5; State Description: state [2, 3]: near-clear solution; Osmolality (mOsm/kg) [2, 4]: ~300 mOsm/kg; State Description: pH [2, 4]: ~7; State Description: state [2, 4]: solution
CCN(CC)Cc1ccc(/C=C/c2n[nH]c3cc(Sc4ccc(F)cc4C(=O)NC4CC4)ccc23)nc1 [Compound I-84, N-cyclopropyl-5-fluoro-2-({3-[(E)-2-{5-[(diethylamino)methyl]pyridin-2-yl}ethenyl]-1H-indazol-6-yl}thio)benzamide]	–	599 µg/mL (≈ 1160 µM)	> 0.05	–	State Description: pH [2, 5]: ~5; State Description: state [2, 5]: homogeneous suspension; State Description: pH [2, 6]: ~7.5; State Description: state [2, 6]: near-clear solution; State Description: pH [2, 3]: ~5.5; State Description: state [2, 3]: gel; Osmolality (mOsm/kg) [2, 4]: ~300 mOsm/kg; State Description: pH [2, 4]: ~7; State Description: state [2, 4]: solution
CCN(CC)CCc1ccc(/C=C/c2n[nH]c3cc(Sc4ccc(F)cc4C(=O)NC4CC4)ccc23)nc1 [Compound I-109]	≤ 1 nM	1950 µg/mL (≈ 3680 µM)	> 0.05	–	–
O=C(NC1CC1)c1ccccc1Sc1ccc2c(/C=C/c3cccc(CCN4CCCC4)n3)n[nH]c2c1 [Compound I-134]	1 to 10 nM	–	–	> 60000 nM	–
CNC(=O)c1ccccc1Sc1ccc2c(/C=C/c3ccnn3CCN3CCCC3)n[nH]c2c1 [Compound I-25]	> 100 nM	216 µg/mL (≈ 457 µM)	> 0.05	–	–
CCNC(=O)c1cccc(F)c1Sc1ccc2c(/C=C/c3ccc(CN4CCCC4)cn3)n[nH]c2c1 [Compound I-75, N-ethyl-3-fluoro-2-({3-[(E)-2-{5-[(pyrrolidin-1-yl)methyl]pyridin-2-yl}ethenyl]-1H-indazol-6-yl}sulfanyl)benzamide]	–	–	–	–	State Description: pH [2, 4]: ~7; State Description: state [2, 4]: solution
O=C(NC1CC1)c1ccccc1Nc1ccc2c(/C=C/c3ccc(CN4CCCC4)cn3)n[nH]c2c1 [Compound I-82, N-cyclopropyl-2-({3-[(E)-2-{5-[(pyrrolidin-1-yl)methyl]pyridin-2-yl}ethenyl]-1H-indazol-6-yl}amino)benzamide]	≤ 1 nM	294 µg/mL (≈ 614 µM)	0.01 to 0.05	–	–
CCNC(=O)c1ccccc1Sc1ccc2c(/C=C/c3cnn(CCCN4CCCC4)c3)n[nH]c2c1 [Compound I-101]	≤ 1 nM	–	–	6000 to 60000 nM	–

Further lines, with some results ahead:

IC50 (VEGFR2)	solubility at 8 h [1]	fraction unbound at 2 h, 2 µM (melanin)	IC50 (EGFR)	Compound	also measured
≤ 1 nM	80.4 µg/mL (≈ 157 µM)	> 0.05	–	O=C(NC1CC1)c1ccc(F)cc1Sc1ccc2c(/C=C/c3ccc(CN4CCCC4)cn3)n[nH]c2c1 [Compound I-79]	–
≤ 1 nM	–	–	> 60000 nM	O=C(NC1CC1)c1cc(F)ccc1Sc1ccc2c(/C=C/c3cc(CCCN4CCCC4)ccn3)n[nH]c2c1 [Compound I-119]	–
1 to 10 nM	–	–	6000 to 60000 nM	CNC(=O)c1cccc(F)c1Sc1ccc2c(/C=C/c3ccc(CN4CCCC4)cn3)n[nH]c2c1 [Compound I-68, 3-fluoro-N-methyl-2-({3-[(E)-2-{5-[(pyrrolidin-1-yl)methyl]pyridin-2-yl}ethenyl]-1H-indazol-6-yl}sulfanyl)benzamide]	–
–	2180 µg/mL (≈ 4200 µM)	> 0.05	> 60000 nM	CCNC(=O)c1cc(F)ccc1Sc1ccc2c(/C=C/c3cnn(CCCN4CCCC4)c3)n[nH]c2c1 [Compound I-104, N-ethyl-5-fluoro-2-({3-[(E)-2-{1-[3-(pyrrolidin-1-yl)propyl]-1H-pyrazol-4-yl}ethenyl]-1H-indazol-6-yl}sulfanyl)benzamide]	Osmolality (mOsm/kg) [2, 4]: ~300 mOsm/kg; State Description: pH [2, 4]: ~7; State Description: state [2, 4]: solution
≤ 1 nM	–	–	> 60000 nM	O=C(NC1CC1)c1ccccc1Sc1ccc2c(/C=C/c3cc(CCCN4CCCC4)ccn3)n[nH]c2c1 [Compound I-120]	–
> 100 nM	–	–	> 60000 nM	CCNC(=O)c1cccc(F)c1Sc1ccc2c(/C=C/c3cc(CN4CCCC4)ccn3)n[nH]c2c1 [Compound I-114]	–
